This is an account of results in patent US6861448B2, “NAD synthetase inhibitors and uses thereof” (priority 1998, dated 2005).

pIC50: −log10 of the molar value. Converted amounts (≈) assume the structure as drawn. Read-outs that look alike come from different tables or passages of the source.

In data set [1] the test system is Bacillus anthracis Sterne 34F2. Put plainly: microbe, parasite or virus in culture. The format is cell-based. As to conditions: for MIC: Bacillus anthracis.
Data set [2] relates to rabbit primary renal cells (RPRC). Put plainly: Cytotoxicity in rabbit primary renal cells (annexin V / PI flow cytometry). The format is cell-based. The settings on record: 24 hr, mean ± SEM; for % CELLULAR NECROSIS (RPRC): at 300 μM; for % APOPTOSIS (RPRC): at peak effect (30 μM). The protocol: Cytotoxicity in Rabbit Primary Renal Cells
Isolation of Proximal Tubules and Culture Conditions
Rabbit renal proximal tubules were isolated using the iron oxide perfusion method and grown in 35-mm tissue culture dishes under improved conditions. The cell culture medium was a 1:1 mixture of DMEM/Ham's F-12 (without D-glucose, phenol red, or sodium pyruvate) supplemented with 15 mM HEPES buffer, 2.5 mM L-gluatmine, 1 μM pyridoxine HCL, 15 mM sodium bicarbonate, and 6 mM lactate. Hydrocortisone (50 nM), selenium (5 ng/mL), human transferrin (5 μg/mL), bovine insulin (10 nM) and L-ascorbic acid-2-phosphate (50 μM) were added to fresh culture medium immediately prior to daily media change.
All numbered compounds were diluted in methanol and the final concentration of methanol in RPRC was less then 0.1% (v/v).
Measurement of RPRC Death
Cell death was monitored in RPRC by assessment of both annexin V and PI staining using flow cytometry. Briefly, RPRC were exposed to the indicated concentrations of compounds for 24 hr. Media was removed and RPRC washed twice with phosphate-buffered saline (PBS) and incubated in a binding buffer (10 mM HEPES, 140 mM NaCL, 5 mM KCL, 1 mM MgCl2, 1.8 mM CaCl2, pH=7.4) containing annexin V-FITC (1 μmol) and PI (25 μg/mL). After a 10 min incubation, RPRC were washed three times in the binding buffer and were released from the monolayers by gentle scrapping with a rubber policeman. Annexin V and PI staining were measured using a BectonDickson FacsCalibur flow cytometer (San Jose, Calif.). An equal number of cells (10,000) were counted for sample and apoptotic cells were defined as those that stained positive for annexin V-FITC only. RPRC undergoing necrotic cell death stained for PI only.
RPRC isolated from one rabbit represented one experiment (n=1). Data were analyzed and are reported as means±standard error of the mean of at least 3 separate experiments.

Another data set concerns S. aureus (MCR). Description: microbe, parasite or virus in culture. The format is cell-based. As to conditions: for MIC: Staphylococcus aureus, read-out: Minimal Inhibitory Concentration (MIC), S. aureus (MCR), multiple values = two or more tests; for Minimal Inhibitory Concentration (MIC), S. aureus (MCR): multiple values = two or more tests.
For the next data set, the system named is B. subtilis. Put plainly: microbe, parasite or virus in culture. It counts as cell-based. As to conditions: multiple values = two or more tests; for MIC: Bacillus subtilis, read-out: Minimal Inhibitory Concentration (MIC), B. subtilis.
In the next data set the target is NAD synthetase (Bacillus subtilis, UniProt P08164). Description: NAD synthetase coupled enzyme assay. The format is biochemical. The settings on record: NAD synthetase 2.0 μg/mL; 0.1 mM NaAD; 0.2 mM ATP; pH 8.5. The text has this:
This Example illustrates the NAD synthetase enzyme inhibiting activity of some compounds of the present invention. [drawing 48] The coupled assay—production of NAD was monitored through conversion to NADH by alcohol dehydrogenase. [NADH] was monitored by 2 parallel methods: the change in absorbance at 340 nm, and fluorescence at 460 nm (excitation 320 nm). […] Controls were included for determining inhibitor background, precipitation, and ADH inhibition.

Chain of NAD synthetase (P08164 whole entry): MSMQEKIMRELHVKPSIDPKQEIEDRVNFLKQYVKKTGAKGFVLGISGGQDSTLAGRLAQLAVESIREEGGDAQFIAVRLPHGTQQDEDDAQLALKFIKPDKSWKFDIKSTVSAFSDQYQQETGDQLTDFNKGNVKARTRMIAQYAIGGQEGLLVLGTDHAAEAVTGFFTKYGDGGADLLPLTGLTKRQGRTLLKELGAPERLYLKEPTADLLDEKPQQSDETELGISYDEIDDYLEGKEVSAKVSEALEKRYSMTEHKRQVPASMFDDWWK

In the case of `O=C(O)c1cn(C2CC2)c2cc(N3CCNCC3)c(F)cc2c1=O` [Ciprofloxacin, reference compound], the MIC in data set [1] (STERNE34F2, read-out: approximate MIC, B. anthracis (first value)) was determined as 0.25 mg/L (≈ 0.754 µM). Further, the MIC in data set [1] (STERNE34F2, read-out: approximate MIC, B. anthracis (second value)) came to 0.125 mg/L (≈ 0.377 µM). Besides, in data set [2], the “% CELLULAR NECROSIS (RPRC)” value was determined as 4 ± 1% and the “% APOPTOSIS (RPRC)” value turned out to be 9 ± 3%.
In the case of `CC1(C)S[C@@H]2[C@H](NC(=O)[C@H](N)c3ccccc3)C(=O)N2[C@H]1C(=O)O` [Ampicillin, reference compound], the MIC in the data set with S. aureus (MCR) is greater than 50 mg/L.
`CN(C)c1ccc(C(=O)Oc2ccc(OCCCCCCCCOC(=O)C(Cc3ccccc3)[N+](C)(C)C)cc2)cc1` (stereo not shown) [Compound 1484]: the figures for the MIC with B. subtilis and in the data set on S. aureus (MCR) were less than 3.13 mg/L and less than 0.78 mg/L, respectively. Further, on NAD synthetase, the pIC50 (usually −log10 of the IC50, conventionally taken in molar units) is 4.83.
With `C[N+](C)(C)C(Cc1ccccc1)C(=O)NCCCCCCCCOc1ccc(OC(=O)c2c(Cl)cccc2Cl)cc1` (stereo not shown) [Compound 1606], on NAD synthetase, the pIC50 was 4.41.
Take `C[n+]1cccc(C(=O)NCCCCCCCCOc2ccc(OC(=O)c3cc(Cl)ccc3Cl)cc2)c1` [Compound 1663]: the pIC50 on NAD synthetase is 4.74.
`CN(CCCCCCCCOc1ccc(OCc2ccccc2)cc1)C[C@H](Cc1ccccc1)[N+](C)(C)C` [Compound 1499]: the negative-log IC50 (pIC50) against NAD synthetase is 4.57. The pIC50 values of the last two molecules are within 0.2 log units of each other.
On the same count and under the same terms, the value for `C[N+](C)(C)C(Cc1ccccc1)C(=O)NCCCCCCCCOc1ccc(OC(=O)c2cc(F)cc(F)c2)cc1` (stereo not shown) [Compound 1614] was 4.64; that for `C[N+](C)(C)c1ccc(CC(=O)OCCCCCCCCOc2ccc(OCc3ccccc3Cl)cc2)cc1` [Compound 1396] was 4.82; that for `C[N+](C)(C)C(Cc1ccc([N+](=O)[O-])cc1)C(=O)OCCCCCCCCOc1ccc(OCc2ccccc2)cc1` (stereo not shown) [Compound 1405] was 4.73.
The molecule `COc1ccc(COc2ccc(OCCCCCCCCOC(=O)C(Cc3ccccc3)[N+](C)(C)C)cc2)cc1` (stereo not shown) [Compound 1389] gave a pIC50 on NAD synthetase of 4.34. Compared with the last molecule, the pIC50 is 0.39 log units lower.
With `C[N+]1([C@@H](Cc2ccccc2)C(=O)OCCCCCCCCOc2ccc(OCc3ccccc3)cc2)CCCCC1` [Compound 1337], the pIC50 at NAD synthetase is 4.69. This pIC50 is 0.35 log units higher than that of the molecule before.
On the same count and under the same terms, the value for `C[N+](C)(C)c1ccc(CC(=O)OCCCCCCCCOc2ccc(OCc3cccc(Cl)c3)cc2)cc1` [Compound 1397] was 4.77; that for `CC(=O)Oc1ccc(C(=O)Oc2ccc(OCCCCCCCCOC(=O)C(Cc3ccccc3)[N+](C)(C)C)cc2)cc1` (stereo not shown) [Compound 1475] was 4.65; that for `C[N+](C)(C)C(Cc1ccccc1)C(=O)OCCCCCCCCOc1ccc(OCc2ccccc2Cl)cc1` (stereo not shown) [Compound 1390] was 4.85.
The same measure, in the same setting: the same measure for `CCC[N+]1([C@@H](Cc2ccccc2)C(=O)OCCCCCCCCOc2ccc(OCc3ccccc3)cc2)CCCC1` [Compound 1443]: 4.55.
Same read-out and setting: the same measure for `C[N+](C)(C)c1ccc(CCCC(=O)OCCCCCCCCOc2ccc(OCc3ccccc3)cc2)cc1` [Compound 1264]: 4.42.
As to `C[N+](C)(C)[C@@H](Cc1ccccc1)C(=O)OCCCCCCCCOc1ccc2oc(-c3ccccc3)cc(=O)c2c1` [Compound 1371], on NAD synthetase, the pIC50 was 4.72.
The same measure, in the same setting: the same measure for `C[N+](C)(C)c1ccc(CC(=O)NCCCCCCCCOc2ccc(OC(=O)c3cccc(Cl)c3)cc2)cc1` [Compound 1623]: 4.47; for `C[N+]1([C@@H](Cc2ccccc2)C(=O)OCCCCCCCCOc2ccc(OCc3ccccc3)cc2)CCCC1` [Compound 1336]: 4.71.
With `C[N+](C)(C)C(Cc1c[nH]c2ccccc12)C(=O)OCCCCCCCn1ccc2cc(OCc3ccccc3)ccc21` (stereo not shown) [Compound 1505], the MIC in the data set with B. subtilis and in the data set with S. aureus (MCR) was less than 0.78 mg/L each time. Also, the pIC50 against NAD synthetase was 5.18.
As to `C[N+](C)(C)C(Cc1ccccc1)C(=O)NCCCCCCCCOc1ccc(OC(=O)c2ccc(F)cc2F)cc1` (stereo not shown) [Compound 1610], the pIC50 against NAD synthetase was 4.52.
Still for that read-out and setting: the same measure for `C[N+](C)(C)C(Cc1ccccc1)C(=O)NCCCCCCCCOc1ccc(OC(=O)c2ccc(Cl)cc2Cl)cc1` (stereo not shown) [Compound 1604]: 4.68.
For the molecule `Cl.N=C(N)N[C@H](COCCCCCCCCOc1ccc(OCc2ccccc2)cc1)Cc1ccccc1` [Compound 1685], the “Minimal Inhibitory Concentration (MIC), B. subtilis” value with B. subtilis is less than 3.13 mg/L. Also, the “Minimal Inhibitory Concentration (MIC), S. aureus (MCR)” value with S. aureus (MCR) was less than 0.78 mg/L. Moreover, the “approximate MIC, B. anthracis (first value)” value in data set [1] (first value of cell, standard broth dilution assay using bacterial growth media (order assumed)) is on record as 4; 4 μg/mL. In addition, the “approximate MIC, B. anthracis (second value)” value in data set [1] (second value of cell, visual turbidity, bacteria cultured in mammalian cell culture media (order assumed)) is recorded as 4; 4 μg/mL. Moreover, on NAD synthetase, the pIC50 was 5.00.
`C[N+]1([C@@H](Cc2ccccc2)C(=O)NCCCCCCCCOc2ccc(OCc3ccccc3)cc2)CCCC1` [Compound 1495] showed a negative logarithm of the IC50 (pIC50) on NAD synthetase of 4.48.
Same read-out and setting: the same measure for `C[N+](C)(C)C(Cc1ccccc1)C(=O)OCCCCCCCn1ccc2cc(OCc3ccccc3)ccc21` (stereo not shown) [Compound 1408]: 4.52; for `C[N+](C)(C)c1ccc(CC(=O)NCCCCCCCCOc2ccc(OC(=O)c3c(Cl)cc(Cl)cc3Cl)cc2)cc1` [Compound 1645]: 4.74; for `C[N+](C)(C)C(Cc1ccccc1)C(=O)NCCCCCCCCOc1ccc(OC(=O)c2c(F)cc(F)cc2F)cc1` (stereo not shown) [Compound 1620]: 4.66.
Molecule `C[N+](C)(C)c1ccc(CC(=O)NCCCCCCCCOc2ccc(OC(=O)c3cc(Cl)cc(Cl)c3Cl)cc2)cc1` [Compound 1644] gave a negative-log IC50 (pIC50) against NAD synthetase of 4.62.
With `CC(=O)Nc1ccc(C(=O)Oc2ccc(OCCCCCCCCOC(=O)C(Cc3ccccc3)[N+](C)(C)C)cc2)cc1` (stereo not shown) [Compound 1482], on NAD synthetase, the pIC50 is 4.58.
For `C[n+]1cccc(C(=O)NCCCCCCCCOc2ccc(OC(=O)c3ccc(Cl)cc3)cc2)c1` [Compound 1653], the negative logarithm of the IC50 (pIC50) against NAD synthetase was 4.71.
Still for that read-out and setting: the same measure for `C[N+](C)(C)C(Cc1ccccc1)C(=O)NCCCCCCCCOc1ccc(OC(=O)c2cc(F)c(F)c(F)c2)cc1` (stereo not shown) [Compound 1621]: 4.59.
As to `C[N+](C)(C)C.[I-]` [TMAI, tetramethylammonium iodide, reference compound], in data set [2], the “% CELLULAR NECROSIS (RPRC)” value amounted to 2 ± 1% and the “% APOPTOSIS (RPRC)” value was 5 ± 1%.
In the case of `CN(C)[C@@H](Cc1ccccc1)C[N+](C)(C)CCCCCCCCOc1ccc(OCc2ccccc2)cc1` [Compound 1498], the negative logarithm of the IC50 (pIC50) against NAD synthetase is 4.40.
On NAD synthetase, `C[N+](C)(C)C(Cc1ccccc1)C(=O)NCCCCCCCCOc1ccc(OC(=O)c2cc(F)c(F)cc2F)cc1` (stereo not shown) [Compound 1619] gave a pIC50 of 4.65.
Still for that read-out and setting: the value for `C[N+](C)(C)C(Cc1ccccc1)C(=O)OCCCCCCCCOc1ccc(OC(=O)c2ccc(C#N)cc2)cc1` (stereo not shown) [Compound 1479] was 4.73; that for `C[N+](C)(C)c1ccc(CC(=O)NCCCCCCCCOc2ccc(OC(=O)c3ccccc3Cl)cc2)cc1` [Compound 1622] was 4.47; that for `C[N+](C)(C)C(Cc1ccccc1)C(=O)OCCCCCCCCOc1ccc(OC(=O)c2ccc(S(N)(=O)=O)cc2)cc1` (stereo not shown) [Compound 1485] was 4.46.
`C[n+]1cccc(C(=O)NCCCCCCCCOc2ccc(OC(=O)c3ccc(Cl)c(Cl)c3)cc2)c1` [Compound 1665] had a negative-log IC50 (pIC50) at NAD synthetase of 4.71.
As to `CCC[N+]1([C@@H](Cc2ccccc2)C(=O)NCCCCCCCCOc2ccc(OCc3ccccc3)cc2)CCCC1` [Compound 1502], on NAD synthetase, the negative-log IC50 (pIC50) is 4.45.
`C[N+](C)(C)C(Cc1ccccc1)C(=O)NCCCCCCCCOc1ccc(OC(=O)c2cc(F)ccc2F)cc1` (stereo not shown) [Compound 1611] had a negative logarithm of the IC50 (pIC50) against NAD synthetase of 4.63. The pIC50 values of the last two molecules are within 0.2 log units of each other.
Same read-out and setting: the value for `CC(C)Oc1ccc(C(=O)Oc2ccc(OCCCCCCCCNC(=O)Cc3ccc([N+](C)(C)C)cc3)cc2)cc1` [Compound 1629] was 4.68.
On to `C[N+](C)(C)C(Cc1ccccc1)C(=O)OCCCCCCCCOc1ccc(OCc2cccc(Cl)c2)cc1.[I-]` (stereo not shown) [Compound 1391], for which the “Minimal Inhibitory Concentration (MIC), B. subtilis” value in the data set on B. subtilis is less than 3.13 mg/L. Also, the “Minimal Inhibitory Concentration (MIC), S. aureus (MCR)” value with S. aureus (MCR) was less than 1.56 mg/L. This molecule also gave a pIC50 at NAD synthetase of 4.94.
On to `C[N+](C)(C)C(Cc1ccccc1)C(=O)NCCCCCCCCOc1ccc(OC(=O)c2cc(Cl)ccc2Cl)cc1` (stereo not shown) [Compound 1605], for which, at NAD synthetase, the negative logarithm of the IC50 (pIC50) was 4.68.
For the molecule `C[N+](C)(C)C(Cc1ccccc1)C(=O)NCCCCCCCCOc1ccc(OC(=O)c2cc(Cl)cc(Cl)c2Cl)cc1` (stereo not shown) [Compound 1615], the pIC50 against NAD synthetase was 4.65.
